# Values quoted from earlier work, collected in patent US6682694B2, “Uncomplexed cyclodextrin solutions for odor control on inanimate surfaces” (The Procter & Gamble Company, priority 1994, dated 2004).
# Conditions: not given
row,SMILES,solubility in water
1,"ClC=CC[N+]12CN3CN(CN(C3)C1)C2.[Cl-] [Dowicil 200, 1-(3-Chlorallyl)-3,5,7-triaza-1-azoniaadamantane chloride]",freely soluble in water

# Same assay, conditions: in water
row,SMILES,water solubility
1,OCc1ccccc1 [benzyl alcohol],about 4%
2,"[H]/N=C(\N/C(=N/[H])NCCCCCCNC(=N)NC(=N)Nc1ccc(Cl)cc1)Nc1ccc(Cl)cc1 [chlorhexidine digluconate, 1,1′-hexamethylene bis(5-(p-chlorophenyl)biguanide), reference compound]",about 70%
3,OCCc1ccccc1 [2-phenylethanol],about 2%
4,"[H]/N=C(\N/C(=N/[H])NCCCCCCNC(=N)NC(=N)Nc1ccc(Cl)cc1)Nc1ccc(Cl)cc1 [chlorhexidine diacetate, 1,1′-hexamethylene bis(5-(p-chlorophenyl)biguanide), reference compound]",about 1.8%
5,[Na+].[O-][n+]1ccccc1[S-] [sodium pyrithione],about 50%
6,"O=[N+]([O-])C1(Br)COCOC1 [Bronidox L, 5-bromo-5-nitro-1,3-dioxane]",about 0.46%
7,"CC(C)(O)C(Cl)(Cl)Cl [chlorobutanol, 1,1,1-Trichloro-2-methylpropan-2-ol, reference compound]",about 0.8%
8,"CC1(C)C(=O)N(CO)C(=O)N1CO [DMDM hydantoin, 1,3-bis(hydroxymethyl)-5,5-dimethyl-2,4-imidazolidinedione]",more than 50%
9,"O=[N+]([O-])C(Br)(CO)CO [Bronopol, 2-bromo-2-nitropropane-1,3-diol]",about 25%
10,OCCOc1ccccc1 [2-phenoxyethanol],about 2.67%
